Experiments:
[1] = tested on: plasma LH levels; test: Study 2: plasma LH after a high dose or multiple i.p. injections of KP-10; type: in vivo, mouse; settings: male mice, single i.p. injection of 1 nmol, mean ± s.e.m., n = 10
Protocol: Male mice received a single intraperitoneal (i.p.) injection of 100 μl of PBS (vehicle control), KP-10 (1 nmol), KP-10 (10 nmol), KP-54 (1 nmol) or a series of six i.p. injections (every 10 minutes over one hour) of KP-10 (1 nmol) to extend the duration of action of KP-10. 100 μl of blood was collected from a tail vein 10 min after the final injection and the mice were killed 2 hours after treatment by an injection of pentobarbital (100mg/kg i.p.). Blood was collected from the vena cava, mixed with 5 μl EDTA, centrifuged at 10,000 x g for 10 min at 4°C to obtain the plasma fraction, and stored at -20°C until assayed.
3–5 month old wild-type (129S6/SvEv) male mice were used in this study. The mice were housed in open cages on a 12 hour light cycle (lights on at 0700 h) at a controlled temperature (22°C), and were provided with food and water ad libitum. All experiments were performed under the authority of a United Kingdom Home Office Project License and were approved by a Cambridge Animal Ethics Committee.
Plasma LH was assayed using a commercial ELISA kit (LH Ultrasensitive Rodent ELISA, Endocrine Technologies Cat Number ERK 7010+) with a sensitivity of 0.3 ng/ml and 7% intra-assay and 10% inter-assay coefficients of variation. […]

[2] = tested on: plasma LH levels; test: Study 1: plasma LH after a single i.p. injection of kisspeptin; type: in vivo, mouse; settings: male mice, single i.p. injection of 1 nmol, ELISA, mean ± s.e.m.
Protocol: Male mice received a single intraperitoneal (i.p.) injection of 100 μl of PBS (vehicle control; 137 mM NaCl, 2.7 mM KCl, 10 mM Na2HPO4, 1.8mM KH2PO4, pH 7.4), KP-10 (1 nmol), or KP-54 (1 nmol) in PBS and LH levels in the plasma measured at 10 min and 2 h after treatment to compare early and late responses points. We chose the 10 min point as some studies have shown that KP-10 injection results in maximal LH secretion after 10–15 min [16, 18]. 100 μl of blood was collected from a tail vein 10 min after injection, mixed with 5 μl EDTA and centrifuged at 10,000 x g for 10 min at 4°C. The plasma supernatant was stored at -20°C until assayed. Two hours after injection, mice were deeply anaesthetized with pentobarbital (100mg/kg i.p.), ~300 μl of blood was rapidly collected from the vena cava and processed as described above. Finally the mice were perfused intracardially with 20 ml of 4% paraformaldehyde in PBS. Brains were removed and incubated for 1 h in the same fixative as for perfusion and placed in PBS for sectioning and immunohistochemistry processing.
3–5 month old wild-type (129S6/SvEv) male mice were used in this study. The mice were housed in open cages on a 12 hour light cycle (lights on at 0700 h) at a controlled temperature (22°C), and were provided with food and water ad libitum. […]

CC[C@H](C)[C@H](NC(=O)[C@H](CCC(N)=O)NC(=O)[C@H](CCCNC(=N)N)NC(=O)[C@H](CO)NC(=O)[C@H](Cc1c[nH]cn1)NC(=O)[C@@H]1CCCN1C(=O)[C@H](C)NC(=O)[C@H](CO)NC(=O)[C@H](CC(C)C)NC(=O)CNC(=O)[C@@H]1CCCN1C(=O)[C@H](CCC(N)=O)NC(=O)[C@H](CCC(N)=O)NC(=O)[C@H](CCCNC(=N)N)NC(=O)[C@H](CO)NC(=O)CNC(=O)[C@H](CO)NC(=O)[C@H](CO)NC(=O)[C@H](CCC(=O)O)NC(=O)[C@@H]1CCCN1C(=O)[C@@H]1CCCN1C(=O)[C@@H]1CCCN1C(=O)[C@H](CO)NC(=O)[C@H](CC(C)C)NC(=O)[C@H](CO)NC(=O)[C@@H](NC(=O)CN)[C@@H](C)O)C(=O)N1CCC[C@H]1C(=O)N[C@@H](C)C(=O)N1CCC[C@H]1C(=O)N[C@@H](CCC(N)=O)C(=O)NCC(=O)N[C@@H](C)C(=O)N[C@H](C(=O)N[C@@H](CC(C)C)C(=O)N[C@H](C(=O)N[C@@H](CCC(N)=O)C(=O)N[C@@H](CCCNC(=N)N)C(=O)N[C@@H](CCC(=O)O)C(=O)N[C@@H](CCCCN)C(=O)N[C@@H](CC(=O)O)C(=O)N[C@@H](CC(C)C)C(=O)N1CCC[C@H]1C(=O)N[C@@H](CC(N)=O)C(=O)N[C@@H](Cc1ccc(O)cc1)C(=O)N[C@@H](CC(N)=O)C(=O)N[C@@H](Cc1c[nH]c2ccccc12)C(=O)N[C@@H](CC(N)=O)C(=O)N[C@@H](CO)C(=O)N[C@@H](Cc1ccccc1)C(=O)NCC(=O)N[C@@H](CC(C)C)C(=O)N[C@@H](CCCNC(=N)N)C(=O)N[C@@H](Cc1ccccc1)C(N)=O)C(C)C)C(C)C [KP-54]
plasma LH level at 2 hrs [1]: 9.62 ± 1.67 ng/mL
plasma LH level 10 min post-injection ([2]; tail vein blood, n = 8, PBS 0.06 ± 0.04): 5.70 ± 0.69 ng/mL
plasma LH level 2 hours post-injection ([2]; vena cava blood, n = 8): 6.42 ± 1.74 ng/mL
